Data: patent US7138491B2, “Carboline-3-carboxylic acid modified related sequences of Ala-Arg-Pro-Ala-Lys, their synthesis and use as thromobolytic agent” (Guangzhou Bai Yun Shan Pharmaceutical Co., Ltd., priority 2003, dated 2006)
Marks after values point to notes of the source that are not given here.

Key:
[1] = test system: thrombus; test: In vivo thrombolytic activity, thrombus on steel helix in extracorporeal circulation; conditions: male Wistar rats; injected; dose differs per compound (3.1-8.2 mg/kg; UK 20000 IU); blood circulated 90 min; n = 10; NS control 12.31 ± 2.57
Experimental: Male Wistar rats weighing 200–300 g (purchased from Animal Center of Peking University) were anesthetized with pentobarbital sodium (80.0 mg/kg, ip). The right carotid artery and left vein jugular of the animals were separated. To the glass tube filled with artery blood (1.0 ml) from the right carotid artery of the animal a stainless steel filament helix (15 circles; L, 15 mm; D, 1.0 mm) was put immediately. After 15 minutes the helix with thrombus was carefully taken out and weighted exactly, which was put into the middle polyethylene tube. The polyethylene tube was full with heparin sodium (50 IU/ml of NS) and one end was inserted into the left jugular vein. Heparin sodium was injected via the other end of the polyethylene tube as the anticoagulant, following which the tested pseudopeptide was injected. The blood was circulated through the polyethylene tube for 90 min, after which the helix was taken out and weighted accurately.

[2] = test system: fibrin plate; test: In vitro fibrinolytic lysis on fibrin plate (fibrinogen-agarose); format: biochemical, rabbit; conditions: dosage per well differs per compound (0.8-2.2 μg; UK 5 IU); n = 6; NS control 21.01 ± 9.26
Experimental: The plates were prepared by mixing equal volumes of 0.3% rabbit fibrinogen and 0.95% agarose solutions, both dissolved in 50 mM of barbital buffer (pH 7.8, contained 1.66 mM of CaCl2, 0.68 mM of MgCl2 and 93.96 mM of NaCl)^[6]. The fibrinogen-agarose mixture was coagulated with […] thrombin (100 IU: ml) in the plastic dishes (its diameter is 90 mm and the depth of the fibrin plate is 1 mm). After 30 min at 4° C. an adequate number of wells, 5 mm in diameter, were perforated. To determine fibrinolytic activity […] aliquots of the tested pseudopeptides were added to each well, the plate was incubated, and areas of lysis were quantified as described for the regular fibrin plates.

[3] = test system: rabbit euglobulin fraction; test: In vitro euglobulin clot lysis time (ECLT); format: biochemical; conditions: dosage differs per compound (1.3-6.7 μg; UK 5 IU); 96 well microtiter plate; n = 6; NS control 200.01 ± 15.26
Experimental: The rabbit euglobulin fraction was prepared according to the literature^[6]. Plasma diluted […] in distilled water was precipitated at pH 5.7 with acetic acid (0.25%). After 30 min at 4° C. the suspension was centrifuged at 2000 g for 15 min and the precipitate was resuspended to the initial plasma volume with 50 mM barbital buffer (pH 7.8, contained 1.66 mM of CaCl2, 0.68 mM of MgCl2 and 93.96 mM of NaCl). Euglobulin clot lysis time (ECLT) of the tested pseudopeptide was measured using a 96 well microtiter plate^[7] and the data are listed in Table 2.

Substance | The reduction of thrombolytic mass, x ± SD [1] | Effect of the pseudopeptides on fibrin plate, areas of lysis, x ± SD [2] | Euglobulin clot lysis time, x ± SD [3]
3S-(2-Pro-Ala-Lys)-1,2,3,4-tetrahydro-β-carboline-3-carboxylic acid [compound 30] | 26.56 ± 2.42^b mg | 139.39 ± 9.52^a mm^2 | 96.56 ± 30.42^a min
H-ARPAK-OH [compound 1, H-Ala-Arg-Pro-Ala-Lys-OH] | 18.84 ± 3.18^1)2) mg | 119.12 ± 12.44^a mm^2 | 90.12 ± 17.64^a,b min
H-Ala-Arg-Pro-Ala-OH (H-ARPA-OH) [compound 10] | 14.01 ± 2.26 mg | 31.01 ± 9.26 mm^2 | 214.01 ± 28.26 min
H-Ala-Arg-Pro-OH [compound 9] | 13.81 ± 2.50 mg | 23.16 ± 9.05 mm^2 | 203.81 ± 29.50 min
H-Arg-Arg-Pro-Ala-Lys-OH (H-RRPAK-OH) [compound 6] | 13.31 ± 2.75 mg | 33.77 ± 10.05 mm^2 | 213.31 ± 27.75 min
H-Arg-Pro-Ala-Lys-OH (H-RPAK-OH) [compound 7] | 18.22 ± 2.40^a mg | 125.33 ± 10.10^a mm^2 | 85.22 ± 20.40^a,b min
H-Asn-Arg-Pro-Ala-Lys-OH (H-NRPAK-OH) [compound 5] | 12.88 ± 2.66 mg | 22.66 ± 9.46 mm^2 | 212.88 ± 29.66 min
H-Gln-Arg-Pro-Ala-Lys-OH (H-QRPAK-OH) [compound 4] | 21.28 ± 3.46^1)2) mg | 136.28 ± 10.62^a mm^2 | 86.28 ± 20.46^a,b min
H-Gly-Arg-Pro-Ala-Lys-OH (H-GRPAK-OH) [compound 2] | 25.90 ± 2.05^1) mg | 125.90 ± 11.15^a mm^2 | 89.90 ± 20.05^a,b min
H-Lys-Arg-Pro-Ala-Lys-OH (H-KRPAK-OH) [compound 3] | 21.28 ± 3.46^1)2) mg | 38.99 ± 9.06 mm^2 | 221.28 ± 23.46 min
H-Pro-Ala-Lys-OH [compound 8] | 23.68 ± 2.34^a mg | 138.06 ± 9.39^a mm^2 | 80.68 ± 20.34^a,b min
